Test results published in ChEMBL document CHEMBL5126589, “Drug design and DNA structural research inspired by the Neidle laboratory: DNA minor groove binding and transcription factor inhibition by thiophene diamidines” (Bioorg Med Chem, 2022).

How the values were obtained:
[1] = Binding affinity to biotin labeled hairpin DNA 5'-GAATTC-3' (unknown origin) assessed as dissociation rate constant by sensor chip immobilization based surface plasmon resonance analysis
[2] = Binding affinity to biotin labeled hairpin DNA 5'-GAATTC-3' (unknown origin) assessed as equilibrium dissociation constant by sensor chip immobilization based surface plasmon resonance analysis
[3] = Binding affinity to biotin labeled hairpin DNA 5'-GAATTC-3' (unknown origin) assessed as association constant by sensor chip immobilization based surface plasmon resonance analysis
[4] = Inhibition of PU.1 binding to biotin labeled lambdaB DNA (unknown origin) by sensor chip immobilization based surface plasmon resonance analysis
[5] = Binding affinity to biotin labeled hairpin DNA 5'-GAATTC-3' (unknown origin) assessed as equilibrium binding constant by sensor chip immobilization based surface plasmon resonance analysis

Structure (SMILES) | Kd [1] | Kd [2] | Ka [3] | IC50 [4] | KA [5]
N=C(N)c1ccc(-c2ccc(-c3cc4ccc(C(=N)N)cc4[nH]3)s2)cc1 | 2.9 10^-3/s | 6.5 nM | 4.5 10^5/M/s | 23 nM | –
N=C(N)c1ccc(-c2ccc(-c3ccc(C(=N)N)cc3)o2)cc1 [FURAMIDINE] | – | 140 nM | – | – | –
N=C(N)c1ccc(-c2ccc(-c3nc4ccc(C(=N)N)cc4[nH]3)s2)cc1 | 8.9 10^-3/s | 1.5 nM | 5.8 10^6/M/s | 9 nM | 6.6 10^8/M
